Data as given in PMC9738107, “Targeting of the ELR+CXCL/CXCR1/2 Pathway Is a Relevant Strategy for the Treatment of Paediatric Medulloblastomas” (Cells, 2022).

What was measured:
Assay in all cases: Cell death assay (PI staining), radiation-resistant cells
Assay type in all cases: cell-based, human
DR1 cells = conditions: DR1 compared to astrocytes
Method: (§1) As with naïve cells, we determined the IC50 for DR1, DR2, […] and their SI compared to astrocytes.
(§2) Figure 8 C29 is efficient on radioresistant MB cell lines. (A) Cell death after 48 h of treatment with control (DMSO, CT) or C29 1, 2.5, or 5 µM on radiation-resistant cells (RR) and normal cells (N), n = 3. Statistics were performed using the one-way method ANOVA. * p < 0.05, ** p < 0.01, *** p < 0.001. For this figure, DR1 = D1, DR2 = D2, HR1 = H1, HR2 = H2, and C8D1A = C8. (B) Proliferation of DR1/DR2 (A) and HR1/HR2 (B) radio-resistant cells after 1 µM C29 treatment or control (DMSO), n = 3. (C) Clonogenic assay on DR1, DR2 (n = 3) and HR1, HR2 (n = 3) cells after treatment with control (DMSO) or C29 (1 µM or 2.5 µM). (D) Cell migration through the Boyden chamber of DR1 and DR2 cells specifically attracted by 200 ng/mL CXCL8. Cells were treated with control (DMSO) or C29 (1 and 2.5 µM). Results are expressed as percentage of control (n = 3). Scale = 1000 μm. Statistics were performed using Student t-test for 2 comparisons only or ANOVA test for multiple comparisons. * p < 0.05, ** p < 0.01, *** p < 0.001. […]
(§3) each month by using PlasmoTest Kit (#10L07‐MM, InvivoGen, Toulouse, France). Daoy and ONS‐76 belong to the Shh genetic subgroup, D341‐Med and HD‐MB03 to group 3.
(§4) Mouse cerebellar astrocytes C8D1A (CRL ‐2541) were purchased from the American Tissue Culture Collection ATCC. These cells were cultured in DMEM (1X) + GlutaMAX (Invitrogen) medium supplemented with 10% FBS (D. Dutscher). Cells were cultured at 37°C in a 5% CO2 incubator. […]
(§5) After 2 days, cells were treated with control (DMSO) or C29
(§6) (1, 2∙5, 5μM) for 48 hours. After 48 hours, the medium was recovered, and the adherent cells were dissociated and added to the supernatant. Cell death was detected by PE chan‐ nel using FACS Cytoflex (Beckman) immediately after labelling the cells with 1ug/ml pro‐ pidium iodide (Miltenyi Biotec). Data were presented with the percentage of cell death after subtracting the percentage of untreated and unlabelled dead cells.
(§7) Migration in Boyden chambers
(§8) The cells were deprived of serum overnight. 50000 cells were plated in triplicate in serum‐free medium into the upper compartment of pre‐wetted inserts (24‐well plate fit, translucent PET membrane, 8∙0 μ m pore size, Falcon, Thermo Fisher). Medium containing 10% serum or CXCL8 (200ng/ml, Peprotech) was added to the lower compartment. After 24 hours, migrated cells were fixed with 3% paraformaldehyde and stained with Crystal […]
Violet. […]
(§9) 5000 cells were plated in 48 multi‐well plates coated with agarose 0∙8%. […]

HR2 cells = conditions: HR2 compared to astrocytes
Method: as §1, §2, §3, §4, §5, §6, §7, §8
Violet. […]
as §9

HR1 cells = conditions: HR1 compared to astrocytes
Method: as §1, §2, §3, §4, §5, §6, §7, §8
Violet. […]
as §9

DR2 cells = conditions: DR2 compared to astrocytes
Method: as §1, §2, §3, §4, §5, §6, §7, §8
Violet. […]
as §9

O=C(Nc1cccc(Cl)c1)Nc1nc2ccc([N+](=O)[O-])cc2s1 [C29, 1-(3-chlorophenyl)-3-(6-nitrobenzo[d]thiazol-2-yl) urea]
Selectivity index (SI) (DR1 cells): 3.9 | Selectivity index (SI) (HR2 cells): 2.8 | Selectivity index (SI) (HR1 cells): 7.7 | Selectivity index (SI) (DR2 cells): 3.9
